According to paper PMC5730592, “Parallelogram based approach for in vivo dose estimation of genotoxic metabolites in humans with relevance to reduction of animal experiments” (Scientific Reports, 2017):
Where “and” joins values, the source holds several entries; their conditions need not be identical. Equal entries are not always repeated. Where two headings read alike, the source gives them in different places.

Experiments:
[1] = In vivo dose (AUC) in rat calculated from measured Hb adduct levels after AA exposure; details: from Hb adduct levels
Protocol: The in vivo dose or AUC of a compound in blood is the concentration integrated over time (Eq. 2).2 AUC=∫tC(t)dt A method to infer the AUC of an electrophilic compound or metabolite from measured Hb adduct levels (A) has been developed and established by our research group for quantitative monitoring of exposure in humans or for application in animal studies[1],[3]. When Hb adduct formation is measured a short time after a single acute exposure, or after incubation in vitro, AUC can be calculated using Eq. 3. This equation is based on A, and the second-order reaction rate constant (kNu) for the formation of an adduct to a nucleophilic site in Hb from the concerned electrophile.3 AUC=A/kNu
For calculating the daily AUC from a longer duration of exposure, the daily adduct level increments (a) have to be calculated considering the accumulation and elimination of adducts due to lifetime of the erythrocytes (t er). […] From continuous or subchronic exposure when the exposure time (t) is shorter than t er, the accumulated adduct level is calculated [a × t × (1 − t/2t er)][49].
For in vivo data on AUC of AA and of GA from AA exposure in rats, a study on short-term oral exposure of rats was used[24]. […] Blood samples were collected and AA- and GA-adducts to N-terminal valine in Hb were measured as described above, and recalculated to the daily increment of the adduct level. […]

[2] = Parallelogram approach estimation of AUC-GA in rat
Excerpt: (§1) The parallelogram approach representing inter-species comparison of in vivo dose and the use of in vitro data is shown in Fig. 1 for the metabolic transformation of R to RX, which is referred to as the metabolism of AA to GA in the present study. This figure can be formulated to Eq. 1 as described in Methods (cf. Eq. 5), where the superscripts H and R represent the corresponding AUC or EE in human and rat, respectively.1 AUC^H−RX/AUC^R−RX=EE^H−R→RX/EE^H−RXel/EE^R−R→RX/EE^R−RXel×AUC^H−R/AUC^R−R
(§2) The in vitro data on enzyme kinetics from human and rat (Table 1), and the in vivo data on AUC of AA and of GA in rat (Table 2) were used to calculate the predictive value of AUC-GA per AUC-AA in human, according to the parallelogram approach (cf. Methods, Eq. 5). This was calculated to 0.087 (Table 3). […] It was observed that the AUC-GA in human and rat predicted by the parallelogram approach and from measured Hb adduct levels, respectively, differed with about a factor of 3 (cf. Tables 2 and 3). This difference is within the variability range of AUC-GA for respective species calculated from different in vivo studies. […]

[3] = male rat, different AA exposure studies, various methods; cited from earlier work
[4] = Parallelogram approach estimation of AUC-GA in human; details: predicted ratio × measured human AUC-AA
Excerpt: as §1, §2

[5] = set-up: method as in PMID 15668111; details: 37 °C; cited from earlier work
[6] = cited from earlier work

## NC(=O)C1CO1 (racemic) [GA, rac-Glycidamide]
[1]
  ratio between species (rat-to-human) of AUC-GA per AUC-AA: 2.3
[2]; Rat, predicted ratio × measured rat AUC-AA
  AUC-GA estimated from the parallelogram approach: 48 nM·h/μg AA per kg bw
[2]; from the parallelogram approach
  ratio between species (rat-to-human) of AUC-GA per AUC-AA: 16
[3]
  range of AUC-GA: 13–52 nM·h per μg AA per kg bw
[4]
  AUC-GA estimated from the parallelogram approach: 18 nM·h/μg AA per kg bw and 18^a nM·h/μg AA per kg bw
[5]
  half-life of hydrolysis of GA in an aqueous solution: 43 h
  rate of hydrolysis of GA in an aqueous solution: 0.016 h⁻¹
[6]; Rat (male F344), 500 and 2000 μg AA/kg bw and day in drinking water, one week, n = 6, from Hb adducts
  AUC-GA: 18 nM·h/μg AA per kg bw and 18 ± 1 nM·h/μg AA per kg bw
[6]; SD rat (male), subchronic intraperitoneal AA, Hb adducts on cysteine site
  AUC of GA: 16.3 nM·h per μg AA per kg bw
[6]; male F344 rats, single dose 0.1 mg AA/kg bw, Hb adducts, ref Tareke et al. (2006)
  AUC-GA: 14 nM·h/ μg AA per kg bw
